{"source": "paper PMC8785688", "about": "(Bioorganic & medicinal chemistry, 2021)", "key": {"h15-LOX-2 [1]": {"target": "T1, h15-LOX-2 (Homo sapiens, UniProt O15296)", "T1 sequence (O15296 1-676)": "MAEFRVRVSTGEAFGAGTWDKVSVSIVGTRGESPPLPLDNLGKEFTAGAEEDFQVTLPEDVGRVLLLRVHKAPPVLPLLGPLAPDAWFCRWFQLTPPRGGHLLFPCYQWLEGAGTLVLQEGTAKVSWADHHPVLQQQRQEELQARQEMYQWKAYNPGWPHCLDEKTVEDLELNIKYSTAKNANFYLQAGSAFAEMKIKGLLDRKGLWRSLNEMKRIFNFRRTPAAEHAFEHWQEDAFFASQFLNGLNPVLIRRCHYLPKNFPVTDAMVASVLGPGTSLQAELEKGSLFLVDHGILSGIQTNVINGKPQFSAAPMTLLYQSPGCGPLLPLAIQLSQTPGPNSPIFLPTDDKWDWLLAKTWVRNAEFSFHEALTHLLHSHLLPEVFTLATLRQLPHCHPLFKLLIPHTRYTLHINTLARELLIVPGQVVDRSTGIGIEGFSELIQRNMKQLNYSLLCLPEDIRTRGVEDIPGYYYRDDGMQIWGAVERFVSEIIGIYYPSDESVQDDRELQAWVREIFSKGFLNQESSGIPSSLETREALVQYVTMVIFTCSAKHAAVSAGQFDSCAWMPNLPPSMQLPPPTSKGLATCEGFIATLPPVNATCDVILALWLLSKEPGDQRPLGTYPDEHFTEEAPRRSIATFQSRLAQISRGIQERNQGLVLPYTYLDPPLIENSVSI", "assay": "Lipoxygenase UV-Vis-based IC50 assay, h15-LOX-2", "format": "biochemical"}, "h15-LOX-2 [2]": {"target": "T1, h15-LOX-2", "assay": "Steady-state inhibition kinetics of h15-LOX-2", "format": "biochemical", "conditions": "for mode of inhibition: against h15-LOX-2"}, "h15-LOX-2 [3]": {"target": "T1, h15-LOX-2", "assay": "Study of inhibitors as substrates of h15-LOX-2", "format": "biochemical", "conditions": "20 μM inhibitor, absence of AA; UV-Vis and RP-HPLC"}, "h15-LOX-2 [4]": {"target": "T1, h15-LOX-2", "assay": "Hydrogen/deuterium exchange mass spectrometry of h15-LOX-2", "conditions": "20 μM inhibitor; peptides 173-184 and 184-191 (helix α2); short time scales (< 10 min)"}, "SEC": {"target": "the molecule itself", "assay": "SEC"}}, "data": [{"molecule": "FC(F)(F)c1ccc(CSc2nccn2-c2ccccc2)cc1", "note": "[Inhibitor 327069]", "values": [{"measurement": "enhanced inhibition of 327069 over 536924", "setting": "h15-LOX-2 [1]; ratio of IC50 values", "result": "~10", "unit": "fold"}, {"measurement": "Ki", "setting": "h15-LOX-2 [2]", "result": 1200, "unit": "nM"}, {"measurement": "mode of inhibition", "setting": "h15-LOX-2 [2]", "result": "mixed-type"}, {"measurement": "substrate activity with h15-LOX-2", "setting": "h15-LOX-2 [3]", "result": "not substrates"}, {"measurement": "change in H/D exchange vs h15-LOX-2 alone", "setting": "h15-LOX-2 [4]", "result": "≤ 20", "unit": "%"}]}, {"molecule": "CCc1ccc(CSc2nccn2-c2ccccc2)cc1", "note": "[Inhibitor 327206]", "values": [{"measurement": "mode of inhibition", "setting": "h15-LOX-2 [2]", "result": "mixed-type"}, {"measurement": "substrate activity with h15-LOX-2", "setting": "h15-LOX-2 [3]", "result": "not substrates"}]}, {"molecule": "Fc1ccc(CSc2nccn2-c2ccccc2)cc1", "note": "[analog 2, 2-((4-fluorobenzyl)thio)-1-phenyl-1H-imidazole]", "values": [{"measurement": "IC50", "setting": "h15-LOX-2 [1]", "result": "> 100000", "unit": "nM"}]}, {"molecule": "loop mutant (LM) of human epithelial 15-lipoxygenase-2, Mn2+-substituted (enzyme, UniProt O15296 1-676, looked up) MAEFRVRVSTGEAFGAGTWDKVSVSIVGTRGESPPLPLDNLGKEFTAGAEEDFQVTLPEDVGRVLLLRVHKAGPLAPDAWFCRWFQLTPPRGGHLLFPCYQWLEGAGTLVLQEGTAKVSWADHHPVLQQQRQEELQARQEMYQWKAYNPGWPHCLDEKTVEDLELNIKYSTAKNANFYLQAGSAFAEMKIKGLLDRKGLWRSLNEMKRIFNFRRTPAAEHAFEHWQEDAFFASQFLNGLNPVLIRRCHYLPKNFPVTDAMVASVLGPGTSLQAELEKGSLFLVDHGILSGIQTNVINGKPQFSAAPMTLLYQSPGCGPLLPLAIQLSQTPGPNSPIFLPTDDKWDWLLAKTWVRNAEFSFHEALTHLLHSHLLPEVFTLATLRQLPHCHPLFKLLIPHTRYTLHINTLARELLIVPGQVVDRSTGIGIEGFSELIQRNMKQLNYSLLCLPEDIRTRGVEDIPGYYYRDDGMQIWGAVERFVSEIIGIYYPSDESVQDDRELQAWVREIFSKGFLNQESSGIPSSLETREALVQYVTMVIFTCSAKHAAVSAGQFDSCAWMPNLPPSMQLPPPTSKGLATCEGFIATLPPVNATCDVILALWLLSKEPGDQRPLGTYPDEHFTEEAPRRSIATFQSRLAQISRGIQERNQGLVLPYTYLDPPLIENSVSI", "values": [{"measurement": "stoichiometry N", "setting": "SEC", "result": 2}]}]}
